From patent US20250255867A1 (Kadmon Corporation, LLC, priority 2022, published 2025)
Values joined by “and” are separate entries in the source; they are usually repeats but may differ in a detail not shown here. Equal values may be shown once. Read-outs that look alike come from different tables or passages of the source.

CC(C)NC(=O)COc1cccc(-c2nc(Nc3ccc4[nH]ncc4c3)c3ccccc3n2)c1 [Belumosudil, 2-{3-[4-(1H-indazol-5-ylamino)-2-quinazolinyl]phenoxy}-N-(propan-2-yl) acetamide]
Thrombocytosis: # Events (Cohort 3 400 mg QD): 0
Thrombocytosis: Affected/At Risk (Cohort 3 400 mg QD): 0/21
Thrombocytosis: Affected/At Risk (%) (Cohort 3 400 mg QD): (0%)
Tinea pedis: # Events (Cohort 3 400 mg QD): 0
Tinea pedis: Affected/At Risk (Cohort 3 400 mg QD): 0/21
Tinea pedis: Affected/At Risk (%) (Cohort 3 400 mg QD): (0%)
Tooth fracture: # Events (Cohort 3 400 mg QD): 0
Tooth fracture: Affected/At Risk (Cohort 3 400 mg QD): 0/21
Tooth fracture: Affected/At Risk (%) (Cohort 3 400 mg QD): (0%)
Total Other Adverse Events: Affected/At Risk (Cohort 3 400 mg QD): 19/21
Total Other Adverse Events: Affected/At Risk (%) (Cohort 3 400 mg QD): (90.48%)
Transfusion reaction: # Events (Cohort 3 400 mg QD): 0
Transfusion reaction: Affected/At Risk (Cohort 3 400 mg QD): 0/21
Transfusion reaction: Affected/At Risk (%) (Cohort 3 400 mg QD): (0%)
Tremor: # Events (Cohort 3 400 mg QD): 4
Tremor: Affected/At Risk (Cohort 3 400 mg QD): 3/21
Tremor: Affected/At Risk (%) (Cohort 3 400 mg QD): (14.29%)
Type 2 diabetes mellitus: # Events (Cohort 3 400 mg QD): 0
Type 2 diabetes mellitus: Affected/At Risk (Cohort 3 400 mg QD): 0/21
Type 2 diabetes mellitus: Affected/At Risk (%) (Cohort 3 400 mg QD): (0%)
Ulcerative keratitis: # Events (Cohort 3 400 mg QD): 0
Ulcerative keratitis: Affected/At Risk (Cohort 3 400 mg QD): 0/21
Ulcerative keratitis: Affected/At Risk (%) (Cohort 3 400 mg QD): (0%)
Upper respiratory tract infection: # Events (Cohort 3 400 mg QD): 9
Upper respiratory tract infection: Affected/At Risk (Cohort 3 400 mg QD): 7/21
Upper respiratory tract infection: Affected/At Risk (%) (Cohort 3 400 mg QD): (33.33%)
Upper-airway cough syndrome: # Events (Cohort 3 400 mg QD): 1
Upper-airway cough syndrome: Affected/At Risk (Cohort 3 400 mg QD): 1/21
Upper-airway cough syndrome: Affected/At Risk (%) (Cohort 3 400 mg QD): (4.76%)
Urinary retention: # Events (Cohort 3 400 mg QD): 0
Urinary retention: Affected/At Risk (Cohort 3 400 mg QD): 0/21
Urinary retention: Affected/At Risk (%) (Cohort 3 400 mg QD): (0%)
Urinary tract infection: # Events (Cohort 3 400 mg QD): 0
Urinary tract infection: Affected/At Risk (Cohort 3 400 mg QD): 0/21
Urinary tract infection: Affected/At Risk (%) (Cohort 3 400 mg QD): (0%)
Urinary tract pain: # Events (Cohort 3 400 mg QD): 1
Urinary tract pain: Affected/At Risk (Cohort 3 400 mg QD): 1/21
Urinary tract pain: Affected/At Risk (%) (Cohort 3 400 mg QD): (4.76%)
Urine output decreased: # Events (Cohort 3 400 mg QD): 0
Urine output decreased: Affected/At Risk (Cohort 3 400 mg QD): 0/21
Urine output decreased: Affected/At Risk (%) (Cohort 3 400 mg QD): (0%)
Vascular access complication: # Events (Cohort 3 400 mg QD): 0
Vascular access complication: Affected/At Risk (Cohort 3 400 mg QD): 0/21
Vascular access complication: Affected/At Risk (%) (Cohort 3 400 mg QD): (0%)
Vertigo: # Events (Cohort 3 400 mg QD): 0
Vertigo: Affected/At Risk (Cohort 3 400 mg QD): 0/21
Vertigo: Affected/At Risk (%) (Cohort 3 400 mg QD): (0%)
Vision blurred: # Events (Cohort 3 400 mg QD): 4
Vision blurred: Affected/At Risk (Cohort 3 400 mg QD): 4/21
Vision blurred: Affected/At Risk (%) (Cohort 3 400 mg QD): (19.05%)
Vomiting: # Events (Cohort 3 400 mg QD): 4
Vomiting: Affected/At Risk (Cohort 3 400 mg QD): 4/21
Vomiting: Affected/At Risk (%) (Cohort 3 400 mg QD): (19.05%)
Weight decreased: # Events (Cohort 3 400 mg QD): 4
Weight decreased: Affected/At Risk (Cohort 3 400 mg QD): 2/21
Weight decreased: Affected/At Risk (%) (Cohort 3 400 mg QD): (9.52%)
Weight increased: # Events (Cohort 3 400 mg QD): 4
Weight increased: Affected/At Risk (Cohort 3 400 mg QD): 1/21
Weight increased: Affected/At Risk (%) (Cohort 3 400 mg QD): (4.76%)
White blood cell count decreased: # Events (Cohort 3 400 mg QD): 2
White blood cell count decreased: Affected/At Risk (Cohort 3 400 mg QD): 1/21
White blood cell count decreased: Affected/At Risk (%) (Cohort 3 400 mg QD): (4.76%)
ALT/AST increased all grade, No. (Cohort 3 400 mg QD n=21): 2
ALT/AST increased grade ≥3, No. (Cohort 3 400 mg QD n=21): 0
Anemia grade ≥3, No. (Cohort 3 400 mg QD n=21): 0
Any AE, No. of patients (Cohort 3 400 mg QD n=21): 16
Cough all grade, No. (Cohort 3 400 mg QD n=21): 7
Death, No. (Cohort 3 400 mg QD n=21): 2
Diarrhea all grade, No. (Cohort 3 400 mg QD n=21): 7
Drug-related AE, No. (Cohort 3 400 mg QD n=21): 14
Drug-related SAE, No. (Cohort 3 400 mg QD n=21): 0
Dyspnea all grade, No. (Cohort 3 400 mg QD n=21): 7
Dyspnea grade ≥3, No. (Cohort 3 400 mg QD n=21): 4
Fatigue all grade, No. (Cohort 3 400 mg QD n=21): 9
Grade ≥3 AE, No. (Cohort 3 400 mg QD n=21): 14
Headache all grade, No. (Cohort 3 400 mg QD n=21): 6
Hyperglycemia grade ≥3, No. (Cohort 3 400 mg QD n=21): 2
Hypertension all grade, No. (Cohort 3 400 mg QD n=21): 4
Hypoxia grade ≥3, No. (Cohort 3 400 mg QD n=21): 2
Lung infection or pneumonia grade ≥3, No. (Cohort 3 400 mg QD n=21): 2
Nausea all grade, No. (Cohort 3 400 mg QD n=21): 8
Peripheral edema all grade, No. (Cohort 3 400 mg QD n=21): 6
SAE, No. (Cohort 3 400 mg QD n=21): 12
URI all grade, No. (Cohort 3 400 mg QD n=21): 7
Cytomegalovirus (CMV) infection or reactivation (Example 1): no reported CMV infection or reactivation
Patients who discontinued because of potentially drug-related AEs (Example 1): Three
Cytomegalovirus (CMV) infection or reactivation (Example 1, listed as belumosudil): No cases
AE cough, patients (Total N=54): 22%
AE diarrhea, patients (Total N=54): 33%
AE dyspnea, patients (Total N=54): 30%
AE fatigue, patients (Total N=54): 33%
AE headache, patients (Total N=54): 24%
AE hypertension, patients (Total N=54): 20%
AE increased liver function tests, patients (Total N=54): 33%
AE nausea, patients (Total N=54): 33%
AE peripheral edema, patients (Total N=54): 24%
AE upper respiratory infection, patients (Total N=54): 46%
ALT/AST increased all grade, No. (Total N=54): 18
ALT/AST increased grade ≥3, No. (Total N=54): 4
Anemia grade ≥3, No. (Total N=54): 3
Any AE, No. of patients (Total N=54): 53
Cough all grade, No. (Total N=54): 12
Death, No. (Total N=54): 2
Diarrhea all grade, No. (Total N=54): 18
Drug-related AE, No. (Total N=54): 30
Drug-related SAE, No. (Total N=54): 0
Dyspnea all grade, No. (Total N=54): 16
Dyspnea grade ≥3, No. (Total N=54): 7
Fatigue all grade, No. (Total N=54): 18
Grade ≥3 AE, No. (Total N=54): 33
Grade ≥3 AE, patients (Total N=54): Sixty-one
Grade ≥3 cytopenias, patients (Total N=54): 4%
Grade ≥3 dyspnea, patients (Total N=54): 13%
Grade ≥3 hyperglycemia, patients (Total N=54): 7%
Grade ≥3 hypoxia, patients (Total N=54): 7%
Grade ≥3 increased liver function tests, patients (Total N=54): 7%
Headache all grade, No. (Total N=54): 13
Hyperglycemia grade ≥3, No. (Total N=54): 4
Hypertension all grade, No. (Total N=54): 11
Hypoxia grade ≥3, No. (Total N=54): 4
Lung infection or pneumonia grade ≥3, No. (Total N=54): 5
Nausea all grade, No. (Total N=54): 18
Peripheral edema all grade, No. (Total N=54): 13
SAE, No. (Total N=54): 23
Serious AE dyspnea, patients (Total N=54): 7%
Serious AE hypoxia, patients (Total N=54): 4%
Serious AE influenza-like illness, patients (Total N=54): 4%
Serious AE lung infection, patients (Total N=54): 6%
Serious AEs, patients (Total N=54): 43%
URI all grade, No. (Total N=54): 25
Patients with dose interruptions (all): 41%
Patients with dose reductions (all): 9%
Patients who died during the study (all in cohort 3, none attributed to belumosudil): Four
Eyelid margin crusting: Affected/At Risk (in vivo): 1/17 and 0/16 and 0/21
Median relative dose intensity (overall): 98%
Median duration of dose interruption (range, 2-39 days): 10 days
Median duration of dose reduction (range, 21-859 days): 97 days
